This note sets out measurements from patent EP4800015A1, “AZABICYCLO DERIVATIVE AND PREPARATION METHOD THEREFOR, AND USE” (Zhejiang Hisun Pharmaceutical Co., Ltd., priority 2023, dated 2025).

The first experiment deals with T1, recombinant human WRN (Homo sapiens, UniProt Q14191).
T1 construct: purchased BPS 101264
T1 sequence (Q14191 whole entry): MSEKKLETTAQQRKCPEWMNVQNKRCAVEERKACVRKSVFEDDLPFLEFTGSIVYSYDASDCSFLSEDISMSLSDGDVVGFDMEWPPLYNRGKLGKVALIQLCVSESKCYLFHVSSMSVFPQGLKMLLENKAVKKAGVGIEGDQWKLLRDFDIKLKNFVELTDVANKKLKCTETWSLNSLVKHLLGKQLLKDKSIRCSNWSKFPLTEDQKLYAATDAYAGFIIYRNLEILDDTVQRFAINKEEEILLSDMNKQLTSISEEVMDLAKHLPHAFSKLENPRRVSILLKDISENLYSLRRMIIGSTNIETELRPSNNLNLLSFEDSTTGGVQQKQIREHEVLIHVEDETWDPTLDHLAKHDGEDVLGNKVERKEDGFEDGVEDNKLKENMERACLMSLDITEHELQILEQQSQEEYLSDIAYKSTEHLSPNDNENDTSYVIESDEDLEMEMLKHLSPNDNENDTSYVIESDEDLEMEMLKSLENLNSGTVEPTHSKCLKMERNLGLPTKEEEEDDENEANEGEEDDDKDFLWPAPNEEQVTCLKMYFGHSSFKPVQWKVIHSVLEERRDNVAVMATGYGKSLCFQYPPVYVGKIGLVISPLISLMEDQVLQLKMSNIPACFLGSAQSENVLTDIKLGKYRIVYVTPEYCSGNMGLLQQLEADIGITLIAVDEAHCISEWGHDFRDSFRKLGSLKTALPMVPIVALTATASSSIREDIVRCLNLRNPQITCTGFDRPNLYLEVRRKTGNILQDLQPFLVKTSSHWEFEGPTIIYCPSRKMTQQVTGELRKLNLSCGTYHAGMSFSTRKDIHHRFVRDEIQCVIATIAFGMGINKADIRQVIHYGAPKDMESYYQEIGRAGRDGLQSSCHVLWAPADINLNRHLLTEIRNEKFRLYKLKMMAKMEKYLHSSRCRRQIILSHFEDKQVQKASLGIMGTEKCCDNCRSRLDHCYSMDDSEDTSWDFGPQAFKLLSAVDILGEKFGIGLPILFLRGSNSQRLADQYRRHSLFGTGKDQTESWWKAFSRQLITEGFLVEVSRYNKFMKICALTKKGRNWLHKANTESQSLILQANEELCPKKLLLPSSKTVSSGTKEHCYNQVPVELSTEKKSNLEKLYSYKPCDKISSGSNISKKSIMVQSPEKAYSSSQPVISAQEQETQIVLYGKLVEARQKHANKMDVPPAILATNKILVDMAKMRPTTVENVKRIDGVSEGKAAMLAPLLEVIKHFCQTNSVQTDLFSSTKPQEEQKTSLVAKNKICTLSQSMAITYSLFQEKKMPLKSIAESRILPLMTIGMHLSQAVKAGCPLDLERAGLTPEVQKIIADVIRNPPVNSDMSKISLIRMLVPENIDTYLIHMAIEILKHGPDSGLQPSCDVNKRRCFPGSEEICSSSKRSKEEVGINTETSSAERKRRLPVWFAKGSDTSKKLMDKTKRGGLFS
As to the kind of experiment: Inhibition of WRN enzyme activity (ATPase), ADP-Glo Kinase Assay. The note with it: WRN protein 5 nM, Flap 0.1 nM, ATP 30 µM. Format: biochemical. An excerpt:
The following method was used to determine the degree of inhibition of recombinant human WRN ATPase activity by the compounds of the present disclosure in vitro. In this method, ADP-Glo™ Kinase Assay kit (catalog No. V9102) from Promega was used. Detailed experimental procedures can be found in the kit manual.
The experimental procedure was briefly described as follows: test compounds were first dissolved in DMSO to prepare stock solutions, followed by serial dilution using reaction buffer (30 mM Tris, pH 7.5, 2 mM MgCl2, 50 mM NaCl, 0.02% BSA, 0.1% Pluronic F127), with final concentrations of test compounds in the reaction system ranging from 1000 nM to 0.004 nM; WRN protein (purchased from BPS, catalog No. 101264), substrate 5-flap oligonucleotide (Flap26) (synthesized by Shanghai Generay Biotech Co., Ltd., sequence 5'-[…]-3'), and ATP working solution (from ADP-Glo™ Kinase Assay kit component V915A) were prepared using reaction buffer. Reactions were performed in 384-well microplates. At first the compounds and recombinant human WRN protein (final concentration 5 nM) were added to the wells and the plate was incubated at room temperature for 15 minutes, then Flap solution (final concentration 0.1 nM) and ATP solution (final concentration 30 µM) were added to the reaction solution and the plate was incubated at room temperature for 10 minutes. Subsequently, 5 µL of ADP-Glo Reagent was added to the reaction system and incubated at room temperature for 40 minutes. Then 10 µL of Kinase Detection Reagent was added to the reaction system and incubated at room temperature for 30 minutes. After the incubation was completed, chemiluminescence intensity values of each well were measured using a microplate reader in luminescence mode. The percentage inhibition of the compounds at each concentration was calculated by comparison with the luminescence intensity values of the control group (0.1% DMSO), and IC50 values of compounds were obtained by nonlinear regression analysis of compound concentration logarithm-inhibition rate using GraphPad Prism 9 software, as shown in Table 1.
The IC50 value results of the compounds of the present disclosure are expressed as AA and A, respectively as follows: "AA" indicates IC50 ≤ 1 nM; "A" indicates 1 nM < IC50 ≤ 100 nM. Table 1 IC50 of the compounds of the present disclosure for inhibiting WRN enzyme activity (ATPase)
On the technique in general: ADP-Glo turns the ADP formed in a reaction into a luminescent signal.
Consider `CCc1c(N2CCN(C(=O)c3ncnc(C)c3O)CC2)c(=O)n2nc(-c3coc4ccccc34)nc2n1CC(=O)Nc1ccc(C(F)(F)F)cc1Cl` [Example 35, 2-(2-(benzofuran-3-yl)-5-ethyl-6-(4-(5-hydroxy-6-methylpyrimidine-4-carbonyl)piperazin-1-yl)-7-oxo-[1,2,4]triazolo[1,5-a]pyrimidin-4(7H)-yl)-N-(2-chloro-4-(trifluoromethyl)phenyl) acetamide], for which the IC50 (in general, the concentration that gives 50% inhibition) was in the range of 1 to 100 nM.

Staying with this experiment, now noted: WRN protein 5 nM, Flap 0.1 nM, ATP 30 µM; read-out: IC50.
On to `CCc1c(N2CCN(C(=O)c3ccncc3O)CC2)c(=O)n2nc(C3=CCCCCC3)nc2n1CC(=O)Nc1ccc(C(C)(C)C)cc1` [Example 24, N-(4-(tert-butyl)phenyl)-2-(2-(cyclohept-1-en-1-yl)-5-ethyl-6-(4-(3-hydroxyisonicotinoyl)piperazin-1-yl)-7-oxo-[1,2,4]triazolo[1,5-a]pyrimidin-4(7H)-yl)acetamide], for which the IC50 fell in the range of 1 to 100 nM.
The same measure, in the same setting: the figure for `CCc1c(N2CCN(C(=O)c3ccncc3O)CC2)c(=O)n2nc(C3=CCCCCC3)nc2n1CC(=O)Nc1ccc(S(F)(F)(F)(F)F)cc1` [Example 25, 2-(2-(cyclohept-1-en-1-yl)-5-ethyl-6-(4-(3-hydroxyisonicotinoyl)piperazin-1-yl)-7-oxo-[1,2,4]triazolo[1,5-a]pyrimidin-4(7H)-yl)-N-(4-(pentafluoro-λ^6-sulfaneyl)phenyl)acetamide] is 1 to 100 nM.
Consider `CCc1c(N2CCN(C(=O)c3ncnc(C)c3O)CC2)c(=O)n2nc(C3=CCCCCC3)nc2n1CC(=O)Nc1ccc(C(C)(C)C)cc1` [Example 26, N-(4-(tert-Butyl)phenyl)-2-(2-(cyclohept-1-en-1-yl)-5-ethyl-6-(4-(5-hydroxy-6-methylpyrimidine-4-carbonyl)piperazin-1-yl)-7-oxo-[1,2,4]triazolo[1,5-a]pyrimidin-4(7H)-yl)acetamide], for which the IC50 was 1 to 100 nM.
On to `CCc1nc2n(CC(=O)Nc3ccc(C(F)(F)F)cc3Cl)c(CC)c(N3CCN(C(=O)c4ncnc(C)c4O)CC3)c(=O)n2n1` [Example 28, N-(2-chloro-4-(trifluoromethyl)phenyl)-2-(2,5-diethyl-6-(4-(5-hydroxy-6-methylpyrimidine-4-carbonyl)piperazin-1-yl)-7-oxo-[1,2,4]triazolo[1,5-a]pyrimidin-4(7H)-yl)acetamide], for which the IC50 lay within 1 to 100 nM.
For `Cc1ncnc(C(=O)N2CCN(c3c(C)n(CC(=O)Nc4ccc(C(F)(F)F)cc4Cl)c4nc(C5=CC6CC(=O)CC6C5)nn4c3=O)CC2)c1O` (stereo not shown) [Example 32, N-(2-chloro-4-(trifluoromethyl)phenyl)-2-(6-(4-(5-hydroxy-6-methylpyrimidine-4-carbonyl)piperazin-1-yl)-5-methyl-7-oxo-2-(5-oxo-1,3a,4,5,6,6a-hexahydropentalen-2-yl)-[1,2,4]triazolo[1,5-a]pyrimidin-4(7H)-yl)acetamide], the IC50 lay within 1 to 100 nM.
Regarding `CCc1c(N2CCN(C(=O)c3ncnc(C)c3O)CC2)c(=O)n2nc(/C=C(\C)C3CC3)nc2n1CC(=O)Nc1ccc(C(F)(F)F)cc1Cl` [Example 36, (E)-N-(2-chloro-4-(trifluoromethyl)phenyl)-2-(2-(2-cyclopropylprop-1-en-1-yl)-5-ethyl-6-(4-(5-hydroxy-6-methylpyrimidine-4-carbonyl)piperazin-1-yl)-7-oxo-[1,2,4]triazolo[1,5-a]pyrimidin-4(7H)-yl)acetamide], the IC50 was 1 to 100 nM.
With `CCc1c(N2CCN(C(=O)c3ncnc(C)c3O)CC2)c(=O)n2nc(/C=C/c3ccccn3)nc2n1CC(=O)Nc1ccc(C(F)(F)F)cc1Cl` [Example 37, (E)-N-(2-chloro-4-(trifluoromethyl)phenyl)-2-(5-ethyl-6-(4-(5-hydroxy-6-methylpyrimidine-4-carbonyl)piperazin-1-yl)-7-oxo-2-(2-(pyridin-2-yl)vinyl)-[1,2,4]triazolo[1,5-a]pyrimidin-4(7H)-yl)a cetamide], the IC50 was in the range of 1 to 100 nM.
With `CCc1c(N2CCN(C(=O)c3ncccc3O)CC2)c(=O)n2nc(C3=CC4CC4C3)nc2n1CC(=O)Nc1ccc(C(F)(F)F)cc1Cl` (stereo not shown) [Example 38, 2-(2-(bicyclo[3.1.0]hex-2-en-3-yl)-5-ethyl-6-(4-(3-hydroxypicolinoyl)piperazin-1-yl)-7-oxo-[1,2, 4]triazolo[1,5-a]pyrimidin-4(7H)-yl)-N-(2-chloro-4-(trifluoromethyl)phenyl)acetamide], the IC50 is under 1 nM.
For `CCc1c(N2CCN(C(=O)c3ncccc3O)CC2)c(=O)n2nc(C3=CC4CCC3C4)nc2n1CC(=O)Nc1ccc(C(F)(F)F)cc1Cl` (stereo not shown) [Example 41, 2-(2-(bicyclo[2.2.1]hept-2-en-2-yl)-5-ethyl-6-(4-(3-hydroxypicolinoyl)piperazin-1-yl)-7-oxo-[1,2,4]triazolo[1,5-a]pyrimidin-4(7H)-yl)-N-(2-chloro-4-(trifluoromethyl)phenyl)acetamide], the IC50 is 1 to 100 nM.
Take `CCc1c(N2CCN(C(=O)c3ccncc3O)CC2)c(=O)n2nc(C3=CCCCCC3)nc2n1CC(=O)Nc1ccc(C(F)(F)F)cc1C` [Example 42, 2-(2-(cyclohept-1-en-1-yl)-5-ethyl-6-(4-(3-hydroxyisonicotinoyl)piperazin-1-yl)-7-oxo-[1,2,4]triazolo[1,5-a]pyrimidin-4(7H)-yl)-N-(2-methyl-4-(trifluoromethyl)phenyl)acetamide]: the IC50 was in the range of 1 to 100 nM.
As for `CCc1c(N2CCN(C(=O)c3ccncc3O)CC2)c(=O)n2nc(C3=CCCCCC3)nc2n1CC(=O)Nc1ccc(C(F)(F)F)cc1OC` [Example 43, 2-(2-(cyclohept-1-en-1-yl)-5-ethyl-6-(4-(3-hydroxyisonicotinoyl)piperazin-1-yl)-7-oxo-[1,2,4]triazolo[1,5-a]pyrimidin-4(7H)-yl)-N-(2-methoxy-4-(trifluoromethyl)phenyl)acetamide], the IC50 lay within 1 to 100 nM.
The same measure, in the same setting: the figure for `CCc1c(N2CCN(C(=O)c3ccncc3O)CC2)c(=O)n2nc(C3=CCCCCC3)nc2n1CC(=O)Nc1ccc(C(F)(F)F)cc1F` [Example 44, 2-(2-(cyclohept-1-en-1-yl)-5-ethyl-6-(4-(3-hydroxyisonicotinoyl)piperazin-1-yl)-7-oxo-[1,2,4]triazolo[1,5-a]pyrimidin-4(7H)-yl)-N-(2-fluoro-4-(trifluoromethyl)phenyl)acetamide] is 1 to 100 nM; for `CCc1c(N2CCN(C(=O)c3ncccc3O)CC2)c(=O)n2nc(C3=CCCCCC3)nc2n1CC(=O)Nc1ccc(C(F)(F)F)cc1Cl` [Example 45, N-(2-chloro-4-(trifluoromethyl)phenyl)-2-(2-(cyclohept-1-en-1-yl)-5-ethyl-6-(4-(3-hydroxypicolinoyl)piperazin-1-yl)-7-oxo-[1,2,4]triazolo[1,5-a]pyrimidin-4(7H)-yl)acetamide] it is 1 to 100 nM; for `CCc1c(N2CCN(C(=O)c3ncccc3O)CC2)c(=O)n2nc(C3=CCCCCC3)nc2n1CC(=O)Nc1ccc(S(F)(F)(F)(F)F)cc1` [Example 46, 2-(2-(cyclohept-1-en-1-yl)-5-ethyl-6-(4-(3-hydroxypicolinoyl)piperazin-1-yl)-7-oxo-[1,2,4]triazolo[1,5-a]pyrimidin-4(7H)-yl)-N-(4-(pentafluoro-λ^6-sulfaneyl)phenyl)acetamide] it is 1 to 100 nM.
For `CCc1c(N2CCN(C(=O)c3ncnc(C)c3O)CC2)c(=O)n2nc(C3=CCCCCC3)nc2n1CC(=O)Nc1ccc(C(F)(F)F)cc1OC` [Example 48, 2-(2-(cyclohept-1-en-1-yl)-5-ethyl-6-(4-(5-hydroxy-6-methylpyrimidine-4-carbonyl)piperazin-1-yl)-7-oxo-[1,2,4]triazolo[1,5-a]pyrimidin-4(7H)-yl)-N-(2-methoxy-4-(trifluoromethyl)phenyl)ace tamide], the 50% inhibitory concentration (IC50) was in the range of 1 to 100 nM.
